From patent US8394367B2, “IL6R/IL6 chimera for therapy of chemotherapy-induced peripheral neuropathy” (Yeda Research and Development Co., Ltd., priority 2004, dated 2013)
“Also recorded” adds a separate entry of the source.

How the values were obtained:
[1] = system: activated caspase-3 in DRG cultures; assay: Caspase-3 activation (apoptosis) in DRG cultures treated with vincristine; type: cell-based, mouse; conditions: 10 nM vincristine for 5 days
Protocol: (§1) IL-6R/IL-6 chimera (Chebath et al, 1997) was used to explore prevention against vincristine intoxication in vitro. For this purpose, cultures of dorsal root ganglia (DRG) from mouse embryos (day E17) in which neuronal outgrowth was stimulated by Nerve Growth Factor (NGF), were subsequently exposed to 10 nM vincristine which induces a progressive axonal degeneration process (Wang et al., J Neuropathol Exp Neurol. 2000 July; 59(7):599-606). […] Neurodegeneration was further examined by monitoring the proteolytic activation of caspase-3, which denotes the early stages of apoptosis in various neuropathies (Russell et al, Neurobiol Dis. 1999 October; 6(5):347-63).
(§2) DRGs were prepared as detailed before (Haggiag et al, 1999, 2001) from embryos of (C57BL/6×129Sv) F1 mice. In some experiments, corresponding IL-6−/− mutant mice were used (Mendel et al, 1998). The DRGs were seeded onto glass coverslips (precoated with a solution of 20 μg/ml poly-D-lysine, 250 μg/ml fibronectin), which were placed in 12-well Costar plates. The regular culture medium was 0.5 ml DMEM/F12 medium with 1% N2 supplement, 10% fetal bovine serum, 2% horse serum, 1.4 mM glutamine (all from Gibco/Invitrogen) and 50 ng/ml NGF (2.5S; Alomone Labs, Jerusalem, Israel). Cultures were maintained at 37° C., 5% CO2 and medium replaced every third day. […]

[2] = system: dorsal root ganglia (DRG) cultures; assay: Protection of the axonal network in DRG cultures intoxicated by vincristine (βIII-tubulin immunostaining); type: cell-based, mouse; conditions: 10 nM vincristine for 2 days; βIII-tubulin staining
Protocol: as §1, §2

[3] = system: dorsal root ganglia (DRG) cultures; assay: Regeneration of DRG cultures after vincristine removal (βIII-tubulin and GFAP immunostaining); type: cell-based, mouse; conditions: 5 nM vincristine day 5 to 10, 6 more days without drug; IL-6-/- DRG
From the text: I further investigated whether the IL-6R/IL-6 could have neural regenerative effects by adding IL-6R/IL-6 after the action of vincristine had taken place. Cultures in which the axonal network was formed in the presence of NGF for 5 days were either continued for another 11 days without or with IL-6R/IL-6 (Panel A and B, respectively), or treated for 5 days by vincristine at which time vincristine was removed and culture continued for 6 more days (panels C-F). […] These experiments indicate that IL-6R/IL-6 chimera promotes regeneration of neural and glial cells when added after exposure to the chemotherapeutic agent.
as §2

[4] = system: peripheral neuropathy caused by carboplatin/paclitaxel; conditions: at the doses and regime tested; cited from earlier work

Compound	Caspase-3 activation caused by vincristine [1]	Loss of axons in DRG outgrowth caused by vincristine [2]	Degeneration of the axonal network 6 days after vincristine removal [3]	Prevention of CIPN in clinical trials [4]
CC[C@]1(O)C[C@H]2CN(CCc3c([nH]c4ccccc34)[C@@](C(=O)OC)(c3cc4c(cc3OC)N(C=O)[C@H]3[C@@](O)(C(=O)OC)[C@H](OC(C)=O)[C@]5(CC)C=CCN6CC[C@]43[C@@H]65)C2)C1 [vincristine]	Positive reaction to antibodies against activated caspase-3	considerable loss of axons; also recorded: extensive neurodegeneration	extensive degeneration of the axonal network was still observed; also recorded: extensive degeneration of the axonal network was still present	–
LIF: recombinant leukemia inhibitor factor (LIF), another gp130 activator	–	–	–	ineffective
